Our source for the IC50, melting point and life-prolonging effect values is patent publication US20080058324A1, “Alpha-Keto Carbonyl Calpain Inhibitors” (SANTHERA PHARMACEUTICALS (SCHWEIZ) AG, priority 2004, published 2008).

The target of one series is T1, 20S Proteasome (Oryctolagus cuniculus, UniProt G1T4Q9).
T1 sequence (G1T4Q9 60-263): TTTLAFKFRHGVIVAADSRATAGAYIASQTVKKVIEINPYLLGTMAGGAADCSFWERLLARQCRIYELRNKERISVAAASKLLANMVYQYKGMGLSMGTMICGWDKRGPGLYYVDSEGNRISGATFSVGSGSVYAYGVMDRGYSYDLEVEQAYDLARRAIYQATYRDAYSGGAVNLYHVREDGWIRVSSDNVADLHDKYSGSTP
Put plainly: 20S Proteasome Assay. Type of series: biochemical, Rabbit. Particulars: read-out: 20S Prot IC50. The protocol:
25 μl of a reaction buffer containing 400 μM of the fluorogenic substrate Suc-Leu-Leu-Val-Tyr-AMC (Bachem) are dispensed per well of a white microtiter plate. Test compounds dissolved in 0.5 μl DMSO are added. To start the reaction; 25 μl of reaction buffer containing 35 ng of enzyme (20S Proteasome, Rabbit, Calbiochem) are added. The increase in fluorescence (excitation at 360 nm; emission at 440 nm) is measured over 30 min at 30° C. at 30″. The IC50's are then determined from the slopes.

The test system of series [1] is cellular calpains in C2C12 myoblasts. Put plainly: Calpain Inhibition Assay in C2C12 Myoblasts. Type of series: cell-based. The settings on record: read-out: Calp I IC50 Myoblast. The protocol: This assay is aimed at monitoring the ability of the substance to inhibit cellular calpains. C2C12 myoblasts are grown in 96-well plates in growth medium (DMEM, 20% foetal calf serum) until they reach confluency. The growth medium is then replaced by fusion medium (DMEM, 5% horse serum). 24 hours later the fusion medium is replaced by fusion medium containing the test substances dissolved in 1 μl DMSO. After 2 hours of incubation at 37° C. the cells are loaded with the calpain fluorogenic substrate Suc-Leu-Tyr-AMC at 400 μM in 50 μl of a reaction buffer containing 135 mM NaCl; 5 mM KCl; 4 mM CaCl2; 1 mM MgCl2; 10 mM Glucose; 10 mM HEPES pH 7.25 for 20 min at room temperature. The calcium influx, necessary to activate the cellular calpains, is evoked by the addition of 50 μl reaction buffer containing 20 μM of the calcium ionophore Br-A-23187 (Molecular Probes). The fluorescence of the cleavage product AMC is measured as described above during 60 min at 37° C. at intervals of 1 min. The IC50 values are determined as described above. Comparison of the IC50 determined in the enzymatic calpain inhibition assay to the IC50 determined in the C2C12 myoblasts calpain inhibiton assay, allows to evaluate the cellular uptake or the membrane permeability of the substance.

For another series, the target named is T2, human μ-calpain (Homo sapiens, UniProt P07384).
T2 construct: purchased Calbiochem
T2 sequence (P07384 1-714): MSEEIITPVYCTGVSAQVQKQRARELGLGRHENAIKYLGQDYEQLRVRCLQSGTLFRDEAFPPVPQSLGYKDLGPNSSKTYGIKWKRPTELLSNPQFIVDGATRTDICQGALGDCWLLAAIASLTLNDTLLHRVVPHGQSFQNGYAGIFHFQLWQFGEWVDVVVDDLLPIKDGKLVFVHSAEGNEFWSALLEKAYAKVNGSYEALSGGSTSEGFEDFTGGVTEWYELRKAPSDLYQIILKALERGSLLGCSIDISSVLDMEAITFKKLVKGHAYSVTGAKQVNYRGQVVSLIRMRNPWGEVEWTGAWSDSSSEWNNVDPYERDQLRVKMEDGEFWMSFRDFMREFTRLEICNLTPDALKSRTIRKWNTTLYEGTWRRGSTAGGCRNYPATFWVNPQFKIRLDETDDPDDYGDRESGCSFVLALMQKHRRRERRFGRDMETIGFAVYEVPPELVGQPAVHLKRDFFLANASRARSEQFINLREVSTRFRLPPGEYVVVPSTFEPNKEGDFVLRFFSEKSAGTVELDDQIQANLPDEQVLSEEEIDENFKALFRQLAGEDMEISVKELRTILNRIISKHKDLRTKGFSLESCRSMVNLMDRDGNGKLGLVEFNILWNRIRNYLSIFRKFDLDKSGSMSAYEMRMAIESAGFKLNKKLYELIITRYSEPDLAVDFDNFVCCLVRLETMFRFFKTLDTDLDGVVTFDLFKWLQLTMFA
T2 sequence (P04632 1-268 partner): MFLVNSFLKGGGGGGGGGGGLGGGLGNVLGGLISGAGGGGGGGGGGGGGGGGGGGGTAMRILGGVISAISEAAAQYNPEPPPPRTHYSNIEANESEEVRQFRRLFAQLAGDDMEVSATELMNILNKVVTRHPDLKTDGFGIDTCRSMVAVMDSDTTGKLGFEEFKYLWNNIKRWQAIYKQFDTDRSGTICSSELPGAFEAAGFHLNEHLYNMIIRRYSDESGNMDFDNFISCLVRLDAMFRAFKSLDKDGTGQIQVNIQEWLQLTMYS
Put plainly: Enzymatic Calpain Inhibition Assay. Format: biochemical. The settings on record: read-out: Calp I IC50. Here is the method: The Ki value was also determined in some cases. These criteria were used to measure the inhibitory effect of the compounds (I) on calpain I, calpain II and cathepsin B.
The inhibitory properties of calpain inhibitors are tested in 100 μl of a buffer containing 100 mM imidazole pH 7.5, 5 mM L-Cystein-HCl, 5 mM CaCl2, 250 μM of the calpain fluorogenic substrate Suc-Leu-Tyr-AMC (Sigma) (Sasaki et al., J. Biol. Chem., 1984, 259, 12489-12949) dissolved in 2.5 μl DMSO and 0.5 μg of human μ-calpain (Calbiochem). The inhibitors dissolved in 1 μl DMSO are added to the reaction buffer. The fluorescence of the cleavage product 7-amino-4-methylcoumarin (AMC) is followed in a SPECTRAmax GEMINI XS (Molecular Device) fluorimeter at λex=360 nm and λem=440 nm at 30° C. during 30 min at intervals of 30 sec in 96-well plates (Greiner). The initial reaction velocity at different inhibitor concentrations is plotted against the inhibitor concentration and the IC50 values determined graphically.

The subject of series [2] is experimental muscular dystrophy in hamster. Particulars: Journal of Pharmacobiodynamics, 1987, 10, 678; cited from earlier work.

Each structure is given as a SMILES string.

As a reminder, the IC50 is the concentration that gives 50% inhibition. The term melting point denotes the temperature of the solid-liquid transition. As for `CCNC(=O)C(=O)C(Cc1ccc(Cl)cc1)NC(=O)C(NC(=O)C(Cc1ccccc1)NC(=O)CCc1cccs1)C(C)C` (centres unmarked) [Example 3], the melting point lay within 244 to 246 °C. Also, on 20S Proteasome, the IC50 was 42 nM. Besides, the IC50 in series [1] turned out to be 20 nM. In addition, at human μ-calpain, the IC50 stood at 24 nM.
With `CCOC(=O)[C@H]1O[C@@H]1C(=O)N[C@@H](CC(C)C)C(=O)NCCC(C)C` [Example E-64-d], the life-prolonging effect entry in series [2] is “life-prolonging effect”.
